Test results published in article PMC9229798, “Antioxidant Activity and Cytotoxicity of Aromatic Oligosulfides” (Molecules, 2022).

Tests used:
[1] = Fe2+ chelating activity; read-out: FIC, IC50 (EDTA activity); cited from earlier work
A-549 = assay: MTT assay; type: cell-based, human
Experimental: (§1) The antiproliferative activity of aromatic oligosulfides 1–6 was determined against human cell lines, including colon carcinoma HCT-116, breast adenocarcinoma MCF-7, lung adenocarcinoma A-549, colorectal carcinoma SW-480, and non-tumourigenic WI-38, using the MTT assay (Table 4). […] However, some selectivity for cancer cells was evident and the IC50 values for non-tumourigenic cells were slightly higher for compounds 1 and 2.
(§2) Cell survival was determined by the MTT [3-(4,5-[…])-2,5-diphenyl tetrazolium bromide] assay by Niks method with small modifications. HCT-116 (colon carcinoma), MCF-7 (breast adenocarcinoma), A-549 (lung adenocarcinoma) and SW-480 (colorectal carcinoma) human cancer cell lines and WI-38 (cell line composed of fibroblasts) were cultured in DMEM (PanEco, Moscow, Russia) with Glutamin (PanEco, Moscow, Russia) and antibiotics (PanEco, Moscow, Russia) in CO2 (5%) at 37 °C. The compounds were dissolved (20 mM) in DMSO and then added to the cell culture medium at the required concentration with a maximum DMSO content of 0.5 v/v%. At these concentrations, DMSO had no effect on cell viability, as was shown in the control experiments. Cells were cultured in 96-well plates (7000 cells/well) and treated with various concentrations (from […]) of the test compounds as well as doxorubicin at 37 °C for 72 h. Cell viability was determined using the MTT assay, which quantified dehydrogenase activity. Then, the cells were incubated at 37 °C for 50 min with a solution of MTT ([…], 5 mg × mL^−1) (Sigma-Aldrich, St. Louis, MO, USA). The supernatant was discarded, and cells were dissolved in DMSO ([…]). The optical density of the solution was measured at 570 nm with use of a multiwall-plate reader (Anthos Zenyth 2000rt, Biochrom, Cambridge, UK), and the percentage of surviving cells was calculated from the absorbance of untreated cells. Each experiment was repeated at least three times, and each concentration was tested in at least three replicates. Data were presented as a graph of the percentage of surviving cells versus the concentration of the test substances. The meanings of 50% inhibition concentration (IC50) with standard deviation were calculated using GraphPad Prism Version 5.03 for Windows (GraphPad Software, San Diego, CA, USA).

HCT-116 [2] = assay: MTT assay; type: cell-based, human
Experimental: as §1, §2

MCF-7 = assay: MTT assay; type: cell-based, human
Experimental: as §1, §2

SW-480 = assay: MTT assay; type: cell-based, human
Experimental: as §1, §2

HCT-116 [3] = assay: Annexin V/Dead Cell assay; type: cell-based, human; conditions: HCT-116, 2 × IC50, 24 h
From the text: Apoptosis or programmed cell death is an important and active regulatory pathway of cell growth and proliferation. Cells respond to specific induction signals by initiating intracellular processes that result in characteristic physiological changes. Among these are externalization of phosphatidylserine (PS) to the cell surface, cleavage and degradation of specific cellular proteins, compaction and fragmentation of nuclear chromatin, and loss of membrane integrity. Phosphatidylserine (PS) is normally located in the inner part of the cell membrane. In the initial stage of apoptosis, the PS residues which translocated to the extracellular are detected by Annexin V, which is a calcium-dependent phospholipid-binding protein with a high affinity for PS. Annexin V flow cytometric assay was used to evaluate the compounds’ ability to induce apoptosis and influence on cell death. HCT-116 colon carcinoma and A-549 lung adenocarcinoma cells were treated by disulfides 2 and 3.
HCT-116 (colon carcinoma) and A-549 (lung carcinoma) cells (1 × 10^6) were seeded in a six-well plate and were incubated for 24 h. […] After incubation, the cells were harvested by trypsinization, precipitated by centrifugation (3000 rpm), washed with PBS, recentrifuged, and the buffer was removed. DMEM was added to achieve a cell concentration of 400–1000 cells/µL. The Muse Annexin V & Dead Cell Kit reagent (100 µL) was added to the cells and […] for 20 min at room temperature in the dark. The results were recorded on a Muse Cell Analyzer flow cytometer (Merck, Rahway, NJ, USA).

Structure (SMILES): O=C([O-])CN(CCN(CC(=O)[O-])CC(=O)O)CC(=O)O.[Na+].[Na+] [EDTA, reference compound]
- IC50 [1]: 380 ± 30 µM

Structure (SMILES): N.N.[Cl][Pt][Cl] [cisplatin, reference compound]
- IC50 (A-549; 72 h): 20.1 ± 5.6 µM
- IC50 (HCT-116 [2]; 72 h): 9.1 ± 2.3 µM
- IC50 (MCF-7; 72 h): > 30 µM
- IC50 (SW-480; 72 h): 17.6 ± 5.4 µM

Structure (SMILES): COc1cccc2c1C(=O)c1c(O)c3c(c(O)c1C2=O)C[C@@](O)(C(=O)CO)C[C@@H]3O[C@H]1C[C@H](N)[C@H](O)[C@H](C)O1 [doxorubicine, doxorubicin, reference compound]
- IC50 (A-549; Homo sapiens, A549, 72 h): 0.24 ± 0.02 µM
- IC50 (HCT-116 [2]; Homo sapiens, HCT-116, 72 h): 0.65 ± 0.05 µM
- IC50 (MCF-7; Homo sapiens, MCF7, 72 h): 0.28 ± 0.03 µM
- IC50 (SW-480; Homo sapiens, SW480, 72 h): 0.45 ± 0.06 µM
- total apoptotic cells (HCT-116 [3]): 17.9%
